According to US20030060438A1, “Oligonucleotides and other modulators of the NK-1 receptor pathway and therapeutic uses thereof” (priority 2000, published 2003):
“Also recorded” adds a separate entry of the source.

Experiments:
Type in all cases: in vivo, rat
NK-1 receptor [1] = assay: Capsaicin test, nociceptive behaviour after plantar injection, intrathecal oligonucleotide; settings: intrathecal continuous infusion 2 micro grams/microlitres/h for 7 days; vs ACSF or MIS
Text: The effect of intrathecal administration of NK-1 receptor antisense oligonucleotide on the nociceptive responses induced by capsaicin is shown in FIG. 2. This test consists of injecting a dilute solution of the active ingredient of hot peppers, capsaicin subcutaneously in the plantar surface of the rat hind paw. Capsaicin, C18H27NO3, is a known painful stimulus, especially of c-fibers, which are associated with substance P.
Capsaicin produces nociceptive (pain) behaviors over a period of about 5 minutes. The index of nociceptive behavior was assessed based a weighted pain intensity scale, where the animal is given a value of 0 for showing no signs of favoring of the injected paw, 1—favoring of hind paw such that it is resting lightly on the floor, 2—elevation of hind paw, 3—licking or vigorously shaking the hind paw. The numerical ratings were calculated by multiplying the amount of time the rats spent in each category by the weighted factor indicated above. This was expressed by the following formula: (time spent in category 0*0+time spent in category 1*1+time spent in category 2*2+time spent in category 3*3)/180 seconds. Oligonucleotides or ASCF control (artificial cerebral spinal fluid) were administered for 7 days prior to testing by continuous infusion (2 micro grams/microlitres/h) via Alzet™ minipumps attached to intrathecal catheters for spinal delivery. […]

NK-1 receptor [2] = assay: Neuropathic pain model (sciatic nerve constriction), mechanical allodynia by von Frey hairs, intrathecal oligonucleotide
Method: Neuropathic pain is a continuous, permanent pain that results from nerve damage. One common feature of neuropathic pain is mechanical allodyina (a painful response to a non-painful stimulus). Humans with neuropathic pain cannot wear clothing on affected regions of the skin or cannot stand in air currents, because their sensitivity is so profound. Neuropathic pain was induced by constriction of the sciatic nerve. Mechanical response thresholds (grams of force) were assessed by application of von Frey hairs to the plantar surface of the ipsilateral hind paw for all groups prior to sciatic nerve constriction surgery (baseline values: B). Oligonucleotides or ASCF control ([…]) via Alzet® minipumps attached to intrathecal catheters for spinal delivery. […] Statistical analyses on mechanical thresholds were performed using the non-parametric Friedman's repeated measures analysis of variance on ranks followed by Wilcoxon signed rank test for post hoc comparisons. […] The lower panel illustrates the mechanical response thresholds are not affected in the contralateral hind paw.
Neuropathic pain was induced by constriction of the sciatic nerve. Mechanical response thresholds (grams of force) were assessed by application of von Frey hairs to the plantar surface of the ipsilateral hind paw for all groups prior to sciatic nerve constriction surgery (baseline values: B). Oligonucleotides or ASCF control ([…]) via Alzet® minipumps attached to intrathecal catheters for spinal delivery.
(§1) Neuropathic pain was induced by constriction of the sciatic nerve. Mechanical response thresholds (grams of force) were assessed by application of von Frey hairs to the plantar surface of the ipsilateral hind paw for all groups prior to sciatic nerve constriction surgery (baseline values: B). Oligonucleotides or ASCF control (artificial cerebral spinal fluid) was administered for 72 h by continuous infusion (2 micro grams/microlitres/h) via Alzet® minipumps attached to intrathecal catheters for spinal delivery starting 6 days following nerve constriction (once the mechanical allodynia was established in all groups).
as §1, with “6 days” for “72 h”, “(0.45” for “(2”, “7” for “6”

NK-1 receptor [3] = assay: Intradermal substance P-induced plasma extravasation in skin (Evans blue); settings: 300 micro grams/kg, Q12 h, intraperitoneal for 6 days; intradermal substance P 6.7 nmol/100 microlitres
Method: Intradermal injection of substance P and neurokinin A produce a wheal and flare inflammatory reaction. Antisense (AS) oligonucleotide (300 micro grams/kg, Q12 h, intraperitoneal) or saline was administered for 6 days prior to experimentation. Substance P or neurokinin A was injected into the dermis of the skin (6.7 nmol/100 microlitres) after intravenous administration of evans blue dye which allows for assessment of neuropeptide-induced plasma extravasation. […] Statistical analysis was performed using an unpaired t-test.

NK-1 receptor [4] = assay: Formalin test, systemic (intraperitoneal) oligonucleotide; settings: 300 micro grams/kg, Q12 h, 6 days prior to testing, vs saline
Method: The formalin test produces a biphasic nociceptive behavior that lasts up to one hour that is believed to represent a tonic, persistent pain. The index of nociceptive behavior is assessed based a weighted pain intensity scale, where the animal is given a value of 0 for showing no signs of favoring of the injected paw, 1—favoring of hind paw such that it is resting lightly on the floor, 2—elevation of hind paw, 3—licking or vigorously shaking the hind paw. The numerical ratings were calculated by multiplying the amount of time the rats spent in each category by the weighted factor indicated above for each 5 minute interval over a one hour time period. This was expressed by the following formula: (time spent in category 0*0+time spent in category 1*1+time spent in category 2*2+time spent in category 3*3)/300 seconds. Antisense (AS) oligonucleotide (300 micro grams/kg, Q12 h, intraperitoneal) or saline was administered for 6 days prior to testing. […] Statistical analysis was performed by a two way ANOVA with time and treatment as independent measures. Time: F=9.966, p<0.001, Treatment: F=31.85, p<0.001.

NK-1 receptor [5] = assay: Formalin test, intrathecal oligonucleotide
Method: The formalin test is similar in some ways to the capsaicin test, in that a noxious chemical is injected under the skin. In the case of formalin, however, this produces nociceptive behavior lasting up to one hour, and thus represents a longer-term tonic pain. The pain score was determined using the same parameters outlined above for the capsaicin test. Oligonucleotides or ASCF control (artificial cerebral spinal fluid) were administered for 7 days prior to testing by continuous infusion (1 micro grams/microlitres/h) via Alzet® minipumps attached to intrathecal catheters for spinal delivery. […] Statistical analysis was performed by a two way ANOVA with time and treatment as independent measures. Time: F(9,44)=8.264, p<0.05, Treatment: F(9,44)=7.254, p<0.05.
Antisense (AS) oligonucleotide or ASCF control (artificial cerebral spinal fluid) was administered for 7 days prior to testing by continuous infusion (0.45 micro grams/microlitres/h) via Alzet® minipumps attached to intrathecal catheters for spinal delivery. […] Statistical analysis was performed by a two way ANOVA with time and treatment as independent measures. Time: F(9,17)=7.985, p<0.05, Treatment: F(9,17)=2.541, p>0.05.

[6] = intrathecal 2 micro grams/microlitres/h for 72 h starting 6 days following nerve constriction

5′gac gtt atc cat ttt ggg g3′ (antisense GACGTTATCCATTTTGGGG; listed as DNA, chemistry not fully specified) [NK-1 receptor antisense oligonucleotide used in all experiments]
capsaicin-induced nociceptive behavior (weighted pain score) (NK-1 receptor [1]): less time spent in nociceptive behavior
reversal of established mechanical allodynia, lower dose (NK-1 receptor [2]; intrathecal 0.45 micro grams/microlitres/h for 6 days starting 7 days following nerve constriction): had no effect in reversing the decrease in mechanical thresholds
prevention of mechanical allodynia, delivery to sacral rather than lumbar spinal cord (NK-1 receptor [2]; intrathecal 1 micro grams/microlitres/h from 2 days prior to surgery, catheter just less than 1 cm from lumbar level): failed to prevent the development of allodynia
mechanical response threshold, contralateral side (NK-1 receptor [2]; [6]): no effect
reversal of established mechanical allodynia, ipsilateral hind paw (NK-1 receptor [2]; [6]): reversed allodynia
mechanical response threshold, ipsilateral hind paw (prevention of mechanical allodynia) (NK-1 receptor [2]; intrathecal (lumbar) 1 micro grams/microlitres/h from 2 days prior to sciatic nerve constriction and throughout testing): did not show a decrease in their threshold of mechanical stimulation
substance P-induced plasma extravasation (skin) (NK-1 receptor [3]): significantly reduced
formalin-induced nociceptive scores (NK-1 receptor [4]): nociceptive scores are less
formalin-induced nociceptive responses, lower dose (NK-1 receptor [5]; intrathecal continuous infusion 0.45 micro grams/microlitres/h for 7 days prior to testing): without effect; also recorded: no attenuation
formalin-induced nociceptive scores (NK-1 receptor [5]; intrathecal continuous infusion 1 micro grams/microlitres/h for 7 days prior to testing): nociceptive scores are less
